This passage reports Activity, ED50 and Time results from ChEMBL document CHEMBL1944578, “Synthesis and anticonvulsant activity of novel 2,6-diketopiperazine derivatives. Part 2: Perhydropyrido[1,2-a]pyrazines” (Eur J Med Chem, 2012).

Series [1] has as its system Mus musculus. Put plainly: Neurotoxicity in Carworth farms No.1 albino mouse assessed as neurological impairment at 100 mg/kg, ip measured after 0.5 hrs. The settings on record: in vivo. Format: toxicity, organism-based. Details: dose 100 mg/kg, route intraperitoneal.
Series [2] has as its system Mus musculus. Put plainly: Neurotoxicity in Carworth farms No.1 albino mouse assessed as neurological impairment at 300 mg/kg, ip measured after 0.5 hrs. The settings on record: in vivo. Also on record: dose 300 mg/kg, route intraperitoneal. Format: toxicity, organism-based.
For series [3], the system named is Mus musculus. Put plainly: Neurotoxicity in Carworth farms No.1 albino mouse assessed as neurological impairment at 300 mg/kg, ip measured after 4 hrs. The series is classed as toxicity, organism-based. Also on record: dose 300 mg/kg, route intraperitoneal. As to conditions: in vivo.
The subject of series [4] is Mus musculus. Put plainly: Anticonvulsant activity in Carworth farms No.1 albino mouse assessed as protection against maximum electroshock at 300 mg/kg, ip measured after 4 hrs. Format: functional, organism-based. Details: dose 300 mg/kg.
For series [5], the system named is Mus musculus. Description: Anticonvulsant activity in Carworth farms No.1 albino mouse assessed as protection against subcutaneous metrazole-induced seizures at 300 mg/kg, ip measured after 4 hrs. Also on record: dose 300 mg/kg. The series is classed as functional, organism-based.
In series [6] the test system is Mus musculus. Description: Anticonvulsant activity in Carworth farms No.1 albino mouse assessed as protection against subcutaneous metrazole-induced seizures at 100 mg/kg, ip measured after 2 hrs. Format: functional, organism-based. Also on record: dose 100 mg/kg.
For series [7], the system named is Mus musculus. Put plainly: Anticonvulsant activity in Carworth farms No.1 albino mouse assessed as protection against maximum electroshock at 30 mg/kg, ip measured after 4 hrs. Details: dose 30 mg/kg. The series is classed as functional, organism-based.
Series [8] deals with Mus musculus. Put plainly: Neurotoxicity in Carworth farms No.1 albino mouse assessed as neurological impairment at 30 mg/kg, ip measured after 4 hrs. The series is classed as toxicity, organism-based. Also on record: dose 30 mg/kg, route intraperitoneal. As to conditions: in vivo.
Series [9] concerns Mus musculus. Description: Anticonvulsant activity in Carworth farms No.1 albino mouse assessed as protection against maximum electroshock at 100 mg/kg, ip measured after 0.5 hrs. Also on record: dose 100 mg/kg. Format: functional, organism-based.
For series [10], the system named is Mus musculus. Put plainly: Anticonvulsant activity in Carworth farms No.1 albino mouse assessed as protection against maximum electroshock at 100 mg/kg, ip measured after 2 hrs. The series is classed as functional, organism-based. Details: dose 100 mg/kg.
Series [11] relates to Mus musculus. Description: Anticonvulsant activity in Carworth farms No.1 albino mouse assessed as protection against maximum electroshock at 100 mg/kg, ip measured after 4 hrs. Also on record: dose 100 mg/kg. The series is classed as functional, organism-based.
For series [12], the system named is Mus musculus. Description: Anticonvulsant activity in Carworth farms No.1 albino mouse assessed as protection against subcutaneous metrazole-induced seizures at 30 mg/kg, ip measured after 0.5 hrs. The series is classed as functional, organism-based. Details: dose 30 mg/kg.
Series [13] concerns Mus musculus. Put plainly: Neurotoxicity in Carworth farms No.1 albino mouse assessed as neurological impairment at 30 mg/kg, ip measured after 0.5 hrs. Format: toxicity, organism-based. Details: dose 30 mg/kg, route intraperitoneal. The settings on record: in vivo.
For series [14], the system named is Mus musculus. Put plainly: Anticonvulsant activity in Carworth farms No.1 albino mouse assessed as protection against maximum electroshock at 300 mg/kg, ip measured after 0.5 hrs. The series is classed as functional, organism-based. Details: dose 300 mg/kg.
Series [15] has as its system Mus musculus. Put plainly: Anticonvulsant activity in Carworth farms No.1 albino mouse assessed as protection against maximum electroshock at 30 mg/kg, ip measured after 0.5 hrs. The series is classed as functional, organism-based. Details: dose 30 mg/kg.
Series [16] deals with Mus musculus. Put plainly: Anticonvulsant activity in Carworth farms No.1 albino mouse assessed as protection against subcutaneous metrazole-induced seizures at 100 mg/kg, ip measured after 4 hrs. The series is classed as functional, organism-based. Also on record: dose 100 mg/kg.
For series [17], the system named is Mus musculus. Description: Anticonvulsant activity in Carworth farms No.1 albino mouse assessed as protection against subcutaneous metrazole-induced seizures at 300 mg/kg, ip measured after 0.5 hrs. The series is classed as functional, organism-based. Also on record: dose 300 mg/kg.
The subject of series [18] is Mus musculus. Description: Anticonvulsant activity in Carworth farms No.1 albino mouse assessed as protection against subcutaneous metrazole-induced seizures at 100 mg/kg, ip measured after 0.5 hrs. Also on record: dose 100 mg/kg. The series is classed as functional, organism-based.
Series [19] concerns Mus musculus. Description: Neurotoxicity in Carworth farms No.1 albino mouse assessed as neurological impairment at 100 mg/kg, ip measured after 4 hrs. As to conditions: in vivo. Format: toxicity, organism-based. Also on record: dose 100 mg/kg, route intraperitoneal.
Series [20] deals with Mus musculus. Put plainly: Anticonvulsant activity in Carworth farms No.1 albino mouse assessed as protection against subcutaneous metrazole-induced seizures at 30 mg/kg, ip measured after 4 hrs. The series is classed as functional, organism-based. Details: dose 30 mg/kg.
Series [21] deals with Mus musculus. Put plainly: Anticonvulsant activity in ip dosed Carworth farms No.1 albino mouse assessed as protection against 6 Hz electric current-induced seizure measured after 0.25 hrs. Format: functional.
Series [22] concerns Mus musculus. Put plainly: Neurotoxicity in Carworth farms No.1 albino mouse assessed as neurological impairment at 100 mg/kg, ip measured after 0.25 hrs. Format: toxicity, organism-based. Also on record: dose 100 mg/kg, route intraperitoneal. As to conditions: in vivo.
Series [23] relates to Mus musculus. Put plainly: Neurotoxicity in Carworth farms No.1 albino mouse assessed as neurological impairment at 100 mg/kg, ip measured after 2 hr. Format: toxicity, organism-based. Also on record: dose 100 mg/kg, route intraperitoneal. The settings on record: in vivo.
Series [24] concerns Mus musculus. Description: Neurotoxicity in Carworth farms No.1 albino mouse assessed as neurological impairment at 100 mg/kg, ip measured after 1 hr. The series is classed as toxicity, organism-based. Details: dose 100 mg/kg, route intraperitoneal. As to conditions: in vivo.
For series [25], the species on record is Mus musculus. Description: Anticonvulsant activity in electric shock-induced Carworth farms No.1 albino mouse assessed as time of peak effect. Format: functional.
Series [26] deals with Mus musculus. Put plainly: Anticonvulsant activity in Carworth farms No.1 albino mouse assessed as protection against 6 Hz electric current-induced seizure at 100 mg/kg, ip measured after 4 hrs. Format: functional, organism-based. Details: dose 100 mg/kg.
In series [27] the test system is Mus musculus. Description: Anticonvulsant activity in Carworth farms No.1 albino mouse assessed as protection against 6 Hz electric current-induced seizure at 100 mg/kg, ip measured after 0.5 hrs. The series is classed as functional, organism-based. Also on record: dose 100 mg/kg.
Series [28] concerns Mus musculus. Description: Anticonvulsant activity in Carworth farms No.1 albino mouse assessed as protection against 6 Hz electric current-induced seizure at 100 mg/kg, ip measured after 0.25 hrs. The series is classed as functional, organism-based. Details: dose 100 mg/kg.
Series [29] concerns Mus musculus. Put plainly: Anticonvulsant activity in Carworth farms No.1 albino mouse assessed as protection against 6 Hz electric current-induced seizure at 100 mg/kg, ip measured after 1 hrs. Format: functional, organism-based. Also on record: dose 100 mg/kg.
The test system of series [30] is Mus musculus. Put plainly: Anticonvulsant activity in Carworth farms No.1 albino mouse assessed as protection against 6 Hz electric current-induced seizure at 100 mg/kg, ip measured after 2 hrs. The series is classed as functional, organism-based. Details: dose 100 mg/kg.
The species named for series [31] is Mus musculus. Description: Anticonvulsant activity in maximum electroshock-induced Carworth farms No.1 albino mouse assessed as time of peak effect. The series is classed as functional.
In series [32] the test system is Mus musculus. Description: Anticonvulsant activity in ip dosed Carworth farms No.1 albino mouse assessed as protection against subcutaneous metrazole-induced seizures. Format: functional.
In series [33] the test system is Mus musculus. Description: Anticonvulsant activity in ip dosed Carworth farms No.1 albino mouse assessed as protection against maximum electroshock. The series is classed as functional.

In general, ED50 refers to the midpoint of the dose-response relation.

Structures are written as SMILES. Calls of active or inactive are those of the source. No cut-off for these calls is given here.

For the molecule `Cl.O=C1[C@H](c2ccccc2)N2CCCC[C@H]2C(=O)N1Cc1ccccc1`, the Activity result with Mus musculus [1], in the series with Mus musculus [2], in the series on Mus musculus [3], with Mus musculus [8], in the series on Mus musculus [13] and in the series on Mus musculus [19] was “Non-toxic” in each case. Also, the result with Mus musculus [4], in the series on Mus musculus [6] and with Mus musculus [10] was Active. Also, the outcome in the series on Mus musculus [5], in the series with Mus musculus [7], with Mus musculus [9], with Mus musculus [11], in the series on Mus musculus [12] and with Mus musculus [14] was inactive. The result in the series on Mus musculus [15], in the series with Mus musculus [16], with Mus musculus [17], in the series on Mus musculus [18] and in the series on Mus musculus [20] was inactive.
With `Cl.O=C1[C@H]2CCCCN2[C@H](c2ccccc2)C(=O)N1CCc1ccccc1`, the Activity result with Mus musculus [1], with Mus musculus [2], with Mus musculus [3], in the series on Mus musculus [22], with Mus musculus [23] and in the series with Mus musculus [8] was “Non-toxic” in each case. The Activity result with Mus musculus [24], in the series with Mus musculus [13] and in the series on Mus musculus [19] was “Non-toxic” throughout. Moreover, the ED50 in the series on Mus musculus [21] was 78.5 mg/kg. Also, the Time in the series filed under Mus musculus [25] worked out at 0.25 h.
In the case of `O=C1[C@H]2CCCCN2[C@@H](c2ccccc2)C(=O)N1Cc1ccccc1`, the Activity entry in the series on Mus musculus [1], in the series with Mus musculus [2], in the series on Mus musculus [3], in the series with Mus musculus [22], with Mus musculus [23] and in the series on Mus musculus [8] was “Non-toxic” in each case. In addition, the Activity entry in the series with Mus musculus [24], in the series with Mus musculus [13] and in the series with Mus musculus [19] was “Non-toxic” in each case. The outcome in the series on Mus musculus [26], in the series with Mus musculus [4], with Mus musculus [5], with Mus musculus [7], in the series with Mus musculus [9] and in the series on Mus musculus [11] was inactive. Besides, the result in the series with Mus musculus [27], with Mus musculus [12], with Mus musculus [14], with Mus musculus [28], with Mus musculus [29] and with Mus musculus [15] was inactive. For the same molecule, the outcome in the series on Mus musculus [16], with Mus musculus [30], in the series with Mus musculus [17], with Mus musculus [18] and in the series on Mus musculus [20] was inactive.
`O=C1NC(=O)C(c2ccccc2)(c2ccccc2)N1` [PHENYTOIN]: the Time in the series listed under Mus musculus [31] was 1 h. Besides, the values for the ED50 with Mus musculus [32] and in the series on Mus musculus [33] were over 50 mg/kg and 5.64 mg/kg, respectively.
